According to patent US11180462B2, “Microbiocidal oxadiazole derivatives” (SYNGENTA PARTICIPATIONS AG, priority 2015, dated 2021):

Key:
[1] = tested on: Puccinia recondita f. Sp. Tritici; experiment: Fungicidal activity against Puccinia recondita f. sp. tritici / wheat / leaf disc preventative (brown rust); assay type: in vivo; details: foliar, 200 ppm in the applied formulation, wheat leaf segments, preventative, compared to untreated control leaf disks, read-out: disease control
How it was run: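 Compound application precedes infection: segments of wheat cv. Kanzler, sprayed at 200 ppm, are inoculated with a spore suspension after 1 day. Incubation is at 19° C. with 75% relative humidity and 12 h light/12 h darkness, and control versus untreated leaves is rated 7 to 9 days post-application.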

[2] = tested on: Puccinia recondita f. Sp. Tritici; experiment: Fungicidal activity against Puccinia recondita f. sp. tritici / wheat / leaf disc curative (brown rust); assay type: in vivo; details: foliar, 24 h, 200 ppm in the applied formulation, wheat leaf segments, curative (applied 1 day after inoculation), compared to untreated control leaf disks, read-out: disease control
How it was run: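 Segments of wheat cv. Kanzler were laid on agar and inoculated with a spore suspension of the rust, then held in darkness at 19° C and 75% relative humidity. One day later the water-diluted formulated compound was applied, with incubation continued under a 12 h light/dark cycle.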

Phakopsora Pachyrhizi = experiment: Fungicidal activity against Phakopsora pachyrhizi / soybean / leaf disc preventative (Asian soybean rust); assay type: in vivo; details: foliar, 200 ppm in the applied formulation, soybean leaf disks, compared to untreated control leaf disks, read-out: disease control
How it was run: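 Preventative soybean leaf-disc test: discs on water agar sprayed with diluted formulated compound, inoculated one day later with spores on the lower surface. Held 24–36 h dark at 20°C, 75% rh, then 12 h light/day; percent disease control versus untreated discs scored 12–14 days after application.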

[3] = tested on: Glomerella lagenarium (Colletotrichum lagenarium); experiment: Fungicidal activity against Glomerella lagenarium (Colletotrichum lagenarium) liquid culture / cucumber / preventative (anthracnose); assay type: cell-based; details: Colletotrichum orbiculare; 20 ppm in the applied formulation; liquid culture (PDB), growth inhibition measured photometrically after 3 to 4 days; compared to untreated control; read-out: disease control
How it was run: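 Photometric read-out of fungal growth after 2–7 days, expressed as percent antifungal activity versus untreated check. Cryo-stored conidia in PDB; compound at 20 ppm; dark, 24 °C, 96% RH.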

CCN(Cc1ccc(-c2noc(C(F)(F)F)n2)cc1)C(=O)C1CC1C (stereo not drawn) [Compound 1.500, N-ethyl-2-methyl-N-[[4-[5-(trifluoromethyl)-1,2,4-oxadiazol-3-yl]phenyl]methyl]-cyclopropane-carboxamide]
≥ 80%: pest or weed control at 200 ppm [1] | pest or weed control at 200 ppm [2] | pest or weed control at 200 ppm (Phakopsora Pachyrhizi) | inhibition of growth at 20 ppm [3]

CCN(Cc1ccc(-c2noc(C(F)(F)F)n2)cc1)C(=O)C(C)C [Compound 1.503]
≥ 80%: pest or weed control at 200 ppm [1] | pest or weed control at 200 ppm [2] | pest or weed control at 200 ppm (Phakopsora Pachyrhizi) | inhibition of growth at 20 ppm [3]

CCN(Cc1ccc(-c2noc(C(F)(F)F)n2)cc1)C(=O)C1CC1(F)F (stereo not drawn) [Compound 1.504, N-ethyl-2,2-difluoro-N-[[4-[5-(trifluoromethyl)-1,2,4-oxadiazol-3-yl]phenyl]methyl]-cyclopropane-carboxamide]
≥ 80%: pest or weed control at 200 ppm [1] | pest or weed control at 200 ppm [2] | pest or weed control at 200 ppm (Phakopsora Pachyrhizi) | inhibition of growth at 20 ppm [3]

CCCC(=O)N(CC)Cc1ccc(-c2noc(C(F)(F)F)n2)cc1 [Compound 1.505, N-ethyl-N-[[4-[5-(trifluoromethyl)-1,2,4-oxadiazol-3-yl]phenyl]methyl]-butanamide]
≥ 80%: pest or weed control at 200 ppm [1] | pest or weed control at 200 ppm [2] | pest or weed control at 200 ppm (Phakopsora Pachyrhizi) | inhibition of growth at 20 ppm [3]

CCC(C)C(=O)N(CC)Cc1ccc(-c2noc(C(F)(F)F)n2)cc1 (stereo not drawn) [Compound 1.506, N-ethyl-2-methyl-N-[[4-[5-(trifluoromethyl)-1,2,4-oxadiazol-3-yl]phenyl]methyl]-butanamide]
≥ 80%: pest or weed control at 200 ppm [1] | pest or weed control at 200 ppm [2] | pest or weed control at 200 ppm (Phakopsora Pachyrhizi) | inhibition of growth at 20 ppm [3]

CCN(Cc1ccc(-c2noc(C(F)(F)F)n2)cc1)C(=O)CCCOC [Compound 1.507, N-ethyl-4-methoxy-N-[[4-[5-(trifluoromethyl)-1,2,4-oxadiazol-3-yl]phenyl]methyl]-butanamide]
≥ 80%: pest or weed control at 200 ppm [1] | pest or weed control at 200 ppm [2] | pest or weed control at 200 ppm (Phakopsora Pachyrhizi) | inhibition of growth at 20 ppm [3]

CCN(Cc1ccc(-c2noc(C(F)(F)F)n2)cc1)C(=O)C1(C)COC1 [Compound 1.508, N-ethyl-3-methyl-N-[[4-[5-(trifluoromethyl)-1,2,4-oxadiazol-3-yl]phenyl]methyl]-oxetane-3-carboxamide]
≥ 80%: pest or weed control at 200 ppm [1] | pest or weed control at 200 ppm [2] | pest or weed control at 200 ppm (Phakopsora Pachyrhizi) | inhibition of growth at 20 ppm [3]

CCN(Cc1ccc(-c2noc(C(F)(F)F)n2)cc1)C(=O)C1CCCO1 (stereo not drawn) [Compound 1.509, N-ethyl-N-[[4-[5-(trifluoromethyl)-1,2,4-oxadiazol-3-yl]phenyl]methyl]-tetrahydrofuran-2-carboxamide]
≥ 80%: pest or weed control at 200 ppm [1] | pest or weed control at 200 ppm [2] | pest or weed control at 200 ppm (Phakopsora Pachyrhizi) | inhibition of growth at 20 ppm [3]

CCN(Cc1ccc(-c2noc(C(F)(F)F)n2)cc1)C(=O)CC#N [Compound 1.510, 2-cyano-N-ethyl-N-[[4-[5-(trifluoromethyl)-1,2,4-oxadiazol-3-yl]phenyl]methyl]-acetamide]
≥ 80%: pest or weed control at 200 ppm [1] | pest or weed control at 200 ppm [2] | pest or weed control at 200 ppm (Phakopsora Pachyrhizi) | inhibition of growth at 20 ppm [3]

CCN(Cc1ccc(-c2noc(C(F)(F)F)n2)cc1)C(=O)C1CC1F (stereo not drawn) [Compound 1.511, N-ethyl-2-fluoro-N-[[4-[5-(trifluoromethyl)-1,2,4-oxadiazol-3-yl]phenyl]methyl]-cyclopropane-carboxamide]
≥ 80%: pest or weed control at 200 ppm [1] | pest or weed control at 200 ppm [2] | pest or weed control at 200 ppm (Phakopsora Pachyrhizi) | inhibition of growth at 20 ppm [3]

CCN(Cc1ccc(-c2noc(C(F)(F)F)n2)cc1)C(=O)C(C)OC (stereo not drawn) [Compound 1.512, N-ethyl-2-methoxy-N-[[4-[5-(trifluoromethyl)-1,2,4-oxadiazol-3-yl]phenyl]methyl]-propanamide]
≥ 80%: pest or weed control at 200 ppm [1] | pest or weed control at 200 ppm [2] | pest or weed control at 200 ppm (Phakopsora Pachyrhizi) | inhibition of growth at 20 ppm [3]

CCN(Cc1ccc(-c2noc(C(F)(F)F)n2)cc1)C(=O)C1OCCO1 [Compound 1.513, N-ethyl-N-[[4-[5-(trifluoromethyl)-1,2,4-oxadiazol-3-yl]phenyl]methyl]-1,3-dioxolane-2-carboxamide]
≥ 80%: pest or weed control at 200 ppm [1] | pest or weed control at 200 ppm [2] | pest or weed control at 200 ppm (Phakopsora Pachyrhizi) | inhibition of growth at 20 ppm [3]

CCN(Cc1ccc(-c2noc(C(F)(F)F)n2)cc1)C(=O)C1CC1 [Compound 1.514, N-ethyl-N-[[4-[5-(trifluoromethyl)-1,2,4-oxadiazol-3-yl]phenyl]methyl]-cyclopropane-carboxamide]
≥ 80%: pest or weed control at 200 ppm [1] | pest or weed control at 200 ppm [2] | pest or weed control at 200 ppm (Phakopsora Pachyrhizi) | inhibition of growth at 20 ppm [3]

CN(Cc1ccc(-c2noc(C(F)(F)F)n2)cc1)C(=O)C1CCCC1 [Compound 1.515, N-methyl-N-[[4-[5-(trifluoromethyl)-1,2,4-oxadiazol-3-yl]phenyl]methyl]-cyclopentane-carboxamide]
≥ 80%: pest or weed control at 200 ppm [1] | pest or weed control at 200 ppm [2] | pest or weed control at 200 ppm (Phakopsora Pachyrhizi) | inhibition of growth at 20 ppm [3]

COCCC(=O)N(C)Cc1ccc(-c2noc(C(F)(F)F)n2)cc1 [Compound 1.516, 3-methoxy-N-methyl-N-[[4-[5-(trifluoromethyl)-1,2,4-oxadiazol-3-yl]phenyl]methyl]-propanamide]
≥ 80%: pest or weed control at 200 ppm [1] | pest or weed control at 200 ppm [2] | pest or weed control at 200 ppm (Phakopsora Pachyrhizi) | inhibition of growth at 20 ppm [3]

CCC(=O)N(C)Cc1ccc(-c2noc(C(F)(F)F)n2)cc1 [Compound 1.517, N-methyl-N-[[4-[5-(trifluoromethyl)-1,2,4-oxadiazol-3-yl]phenyl]methyl]-propanamide]
≥ 80%: pest or weed control at 200 ppm [1] | pest or weed control at 200 ppm [2] | pest or weed control at 200 ppm (Phakopsora Pachyrhizi) | inhibition of growth at 20 ppm [3]

CN(Cc1ccc(-c2noc(C(F)(F)F)n2)cc1)C(=O)C1CCC1 [Compound 1.518, N-methyl-N-[[4-[5-(trifluoromethyl)-1,2,4-oxadiazol-3-yl]phenyl]methyl]-cyclobutane-carboxamide]
≥ 80%: pest or weed control at 200 ppm [1] | pest or weed control at 200 ppm [2] | pest or weed control at 200 ppm (Phakopsora Pachyrhizi) | inhibition of growth at 20 ppm [3]

COCC(=O)N(C)Cc1ccc(-c2noc(C(F)(F)F)n2)cc1 [Compound 1.519, 2-methoxy-N-methyl-N-[[4-[5-(trifluoromethyl)-1,2,4-oxadiazol-3-yl]phenyl]methyl]-acetamide]
≥ 80%: pest or weed control at 200 ppm [1] | pest or weed control at 200 ppm [2] | pest or weed control at 200 ppm (Phakopsora Pachyrhizi) | inhibition of growth at 20 ppm [3]

CC1CC1C(=O)N(C)Cc1ccc(-c2noc(C(F)(F)F)n2)cc1 (stereo not drawn) [Compound 1.520, N,2-dimethyl-N-[[4-[5-(trifluoromethyl)-1,2,4-oxadiazol-3-yl]phenyl]methyl]-cyclopropane-carboxamide]
≥ 80%: pest or weed control at 200 ppm [1] | pest or weed control at 200 ppm [2] | pest or weed control at 200 ppm (Phakopsora Pachyrhizi) | inhibition of growth at 20 ppm [3]

CC(=O)NCC(=O)N(C)Cc1ccc(-c2noc(C(F)(F)F)n2)cc1 [Compound 1.521, 2-acetamido-N-methyl-N-[[4-[5-(trifluoromethyl)-1,2,4-oxadiazol-3-yl]phenyl]methyl]-acetamide]
≥ 80%: pest or weed control at 200 ppm [1] | pest or weed control at 200 ppm [2] | pest or weed control at 200 ppm (Phakopsora Pachyrhizi) | inhibition of growth at 20 ppm [3]

CN(Cc1ccc(-c2noc(C(F)(F)F)n2)cc1)C(=O)C1CC1(F)F (stereo not drawn) [Compound 1.523, 2,2-difluoro-N-methyl-N-[[4-[5-(trifluoromethyl)-1,2,4-oxadiazol-3-yl]phenyl]methyl]-cyclopropane-carboxamide]
≥ 80%: pest or weed control at 200 ppm [1] | pest or weed control at 200 ppm [2] | pest or weed control at 200 ppm (Phakopsora Pachyrhizi) | inhibition of growth at 20 ppm [3]

CCCC(=O)N(C)Cc1ccc(-c2noc(C(F)(F)F)n2)cc1 [Compound 1.524, N-methyl-N-[[4-[5-(trifluoromethyl)-1,2,4-oxadiazol-3-yl]phenyl]methyl]-butanamide]
≥ 80%: pest or weed control at 200 ppm [1] | pest or weed control at 200 ppm [2] | pest or weed control at 200 ppm (Phakopsora Pachyrhizi) | inhibition of growth at 20 ppm [3]

CCC(C)C(=O)N(C)Cc1ccc(-c2noc(C(F)(F)F)n2)cc1 (stereo not drawn) [Compound 1.525, N.2-dimethyl-N-[[4-[5-(trifluoromethyl)-1,2,4-oxadiazol-3-yl]phenyl]methyl]-butanamide]
≥ 80%: pest or weed control at 200 ppm [1] | pest or weed control at 200 ppm [2] | pest or weed control at 200 ppm (Phakopsora Pachyrhizi) | inhibition of growth at 20 ppm [3]

COCCCC(=O)N(C)Cc1ccc(-c2noc(C(F)(F)F)n2)cc1 [Compound 1.526, 4-methoxy-N-methyl-N-[[4-[5-(trifluoromethyl)-1,2,4-oxadiazol-3-yl]phenyl]methyl]-butanamide]
≥ 80%: pest or weed control at 200 ppm [1] | pest or weed control at 200 ppm [2] | pest or weed control at 200 ppm (Phakopsora Pachyrhizi) | inhibition of growth at 20 ppm [3]
